For 43 compounds, IC50 results are on record in patent US10941132B2, “Pyrazole derivatives” (HUA MEDICINE (SHANGHAI) Ltd., priority 2016, dated 2021).

pIC50: −log10 of the molar value.

One assay deals with T1, recombinant rat mGluR5 (Rattus norvegicus, UniProt P31424).
T1 construct: expressed in transfected cells
T1 sequence (P31424 21-1203): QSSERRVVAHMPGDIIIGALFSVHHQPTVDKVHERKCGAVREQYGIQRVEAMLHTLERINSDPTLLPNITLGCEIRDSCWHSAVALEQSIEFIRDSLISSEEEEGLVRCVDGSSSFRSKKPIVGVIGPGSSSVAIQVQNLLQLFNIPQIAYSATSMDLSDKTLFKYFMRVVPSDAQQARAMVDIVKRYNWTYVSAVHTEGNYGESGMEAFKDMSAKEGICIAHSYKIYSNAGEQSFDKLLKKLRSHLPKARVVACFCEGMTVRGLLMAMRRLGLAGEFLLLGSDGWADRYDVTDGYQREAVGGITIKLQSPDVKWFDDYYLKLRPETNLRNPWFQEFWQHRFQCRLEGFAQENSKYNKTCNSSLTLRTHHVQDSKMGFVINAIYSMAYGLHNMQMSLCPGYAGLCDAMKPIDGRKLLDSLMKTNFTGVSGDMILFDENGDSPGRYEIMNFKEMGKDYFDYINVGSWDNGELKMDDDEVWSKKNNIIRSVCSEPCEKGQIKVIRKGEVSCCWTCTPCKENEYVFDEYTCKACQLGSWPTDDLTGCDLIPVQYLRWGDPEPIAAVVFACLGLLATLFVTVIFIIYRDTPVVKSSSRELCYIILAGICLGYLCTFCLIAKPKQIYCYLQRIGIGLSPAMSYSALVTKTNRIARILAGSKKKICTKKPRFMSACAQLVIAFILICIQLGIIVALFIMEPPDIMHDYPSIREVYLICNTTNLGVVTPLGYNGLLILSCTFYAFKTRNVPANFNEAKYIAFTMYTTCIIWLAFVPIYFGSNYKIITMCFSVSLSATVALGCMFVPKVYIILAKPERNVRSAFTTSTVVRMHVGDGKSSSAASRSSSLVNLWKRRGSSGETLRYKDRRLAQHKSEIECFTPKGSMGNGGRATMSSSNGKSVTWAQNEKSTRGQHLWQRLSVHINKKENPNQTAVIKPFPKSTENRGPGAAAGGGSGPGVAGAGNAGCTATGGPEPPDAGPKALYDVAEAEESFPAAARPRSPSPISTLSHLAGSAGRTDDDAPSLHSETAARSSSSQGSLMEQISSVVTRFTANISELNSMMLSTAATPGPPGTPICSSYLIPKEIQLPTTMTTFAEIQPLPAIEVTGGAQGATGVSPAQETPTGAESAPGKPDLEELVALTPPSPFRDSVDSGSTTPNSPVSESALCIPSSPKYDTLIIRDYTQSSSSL
Nature of the assay: Functional calcium flux assay (FLIPR), antagonist evaluation against glutamate-evoked [Ca2+]i increase. It is filed as cell-based. The settings on record: Table 1; HEK293 cells stably expressing recombinant rat mGluR5; 15 min incubation of test compound, then submaximal glutamate; read-out: IC50 value (FLIPR assay). The method, then: Functional Calcium Clux Assay Methodology
For functional assays, HEK293 cells stably expressing recombinant rat mGluR5 were seeded in 384-well plates and dye loaded using Fluo-8. Cells were then washed to remove the un-incorporated dye. Antagonist evaluation was performed following a 15 min incubation of the test compound followed by the addition of submaximal concentration of glutamate. Intracellular calcium ([Ca^2+]i) measurements were performed using a fluorometric imaging plate reader (FLIPR, Molecular Devices). The glutamate-evoked increase in [Ca^2′]i in the presence of the test compounds was compared to the response to glutamate alone (the positive control). Antagonist inhibition curves were fitted with a 4-parameter logistic equation giving IC50 values, and Hill coefficients using an iterative nonlinear curve fitting algorithm.
The tables below provide IC50 data in this assay. In the activity column, A=IC50>1,000 and ≤5,000 nM; B=IC50>500 and ≤1,000 nM and C=IC50≤500 nM.
As for `FC(F)(F)Oc1ccc(-n2cc(C#Cc3cccnc3)cn2)cc1` [Compound 91, 3-((1-(4-(trifluoromethoxy)phenyl)-H-pyrazol-4-yl)ethynyl)pyridine], the pIC50 (commonly the IC50 on a negative log10 scale, so that one unit is a factor of ten) was 5.30 to 6.00.

For `Fc1ccc(-n2cc(C#Cc3ccccn3)cn2)cc1` [Compound 82, 2-((1-(4-fluorophenyl)-1H-pyrazol-4-yl)ethynyl)pyridine], the pIC50 is ≥ 6.30.

Consider `COCCOc1nn(-c2cc(F)cc(C#N)c2)c(C)c1C#Cc1ccccn1` [Compound 29, 3-fluoro-5-(3-(2-methoxyethoxy)-5-methyl-4-(pyridin-2-ylethynyl)-1H-pyrazol-1-yl)benzonitrile], for which the pIC50 is ≥ 6.30.

As for `N#Cc1cc(F)cc(-n2cc(C#Cc3ccccc3)cn2)c1` [Compound 74, 3-fluoro-5-(4-(phenylethynyl)-H-pyrazol-1-yl)benzonitrile], the pIC50 is 5.30 to 6.00.

Consider `Fc1ccc(-n2cc(C#Cc3ccccn3)c(OC(F)F)n2)nc1` [Compound 68, 2-(3-(difluoromethoxy)-4-(pyridin-2-ylethynyl)-1H-pyrazol-1-yl)-5-fluoropyridine], for which the pIC50 is ≥ 6.30.

With `Fc1cncc(-n2cc(C#Cc3ncccn3)c(Cl)n2)c1` [Compound 45, 2-((3-chloro-1-(5-fluoropyridin-3-yl)-1H-pyrazol-4-yl)ethynyl) pyrimidine], the pIC50 is 5.30 to 6.00.

As to `COc1c(C#Cc2ccccn2)c(C)nn1-c1ccc(F)cc1` [Compound 9, 2-((1-(4-fluorophenyl)-5-methoxy-3-methyl-1H-pyrazol-4-yl)ethynyl)pyridine], the negative logarithm of the IC50 (pIC50) is ≥ 6.30.

`FC(F)(F)Oc1ccc(-n2cc(C#Cc3cnccn3)cn2)cc1` [Compound 65, 2-((1-(4-(trifluoromethoxy)phenyl)-1H-pyrazol-4-yl)ethyny)pyrazine]: the pIC50 was 5.30 to 6.00.

For `Fc1ccc(-n2cc(C#Cc3ncccn3)cn2)cc1` [Compound 86, 2-((1-(4-fluorophenyl)-H-pyrazol-4-yl)ethynyl)pyrimidine], the pIC50 was ≥ 6.30.

`FC(F)(F)Oc1ccc(-n2cc(C#Cc3ncccn3)cn2)cc1` [Compound 93]: the pIC50 is ≥ 6.30.

As for `Fc1ccc(-n2ncc(C#Cc3ncccn3)c2Cl)cn1` [Compound 19, 2-((5-chloro-1-(6-fluoropyridin-3-yl)-1H-pyrazol-4-yl)ethynyl)pyrimidine], the pIC50 is ≥ 6.30.

With `Cc1nn(-c2ccc(F)cc2)c(C)c1C#Cc1ccncn1` [Compound 3, 4-((1-(4-fluorophenyl)-3,5-dimethyl-1H-pyrazol-4-yl)ethynyl) pyrimidine], the pIC50 is ≥ 6.30.

`COCCOc1nn(-c2cc(F)cc(C#N)c2)c(C)c1C#Cc1ncccn1` [Compound 30, 3-fluoro-5-(3-(2-methoxyethoxy)-5-methyl-4-(pyrimidin-2-ylethynyl)-1H-pyrazol-1-yl)benzonitrile]: the pIC50 was 5.30 to 6.00.

In the case of `N#Cc1cc(F)cc(-n2cc(C#Cc3cccnc3)cn2)c1` [Compound 76, 3-fluoro-5-(4-(pyridin-3-ylethynyl)-1H-pyrazol-1-yl)benzonitrile], the negative-log IC50 (pIC50) is 5.30 to 6.00.

Take `COCCOc1ccc(-n2cc(C#Cc3ccccn3)cn2)cc1` [Compound 26, 2-((1-(4-(2-methoxyethoxy)phenyl)-1H-pyrazol-4-yl)ethynyl) pyridine]: the negative logarithm of the IC50 (pIC50) was ≥ 6.30.

As to `N#Cc1cc(F)cc(-n2cc(C#Cc3cnccn3)cn2)c1` [Compound 80, 3-fluoro-5-(4-(pyrazin-2-ylethynyl)-1H-pyrazol-1-yl)benzonitrile], the pIC50 is 5.30 to 6.00.

With `Fc1ccc(-n2cc(C#Cc3ccccn3)c(Cl)n2)nc1` [Compound 49, 2-(3-chloro-4-(pyridin-2-ylethynyl)-1H-pyrazol-1-yl)-5-fluoropyridine], the pIC50 is ≥ 6.30.

As for `Fc1ccc(-n2cc(C#Cc3ncccn3)cn2)cn1` [Compound 34, 2-((1-(6-fluoropyridin-3-yl)-1H-pyrazol-4-yl)ethynyl)pyrimidine], the pIC50 was ≥ 6.30.

`Cc1nn(-c2cc(F)cc(C#N)c2)c(C(F)(F)F)c1C#Cc1ccccn1` [Compound 11, 3-fluoro-5-(3-methyl-4-(pyridin-2-ylethynyl)-5-(trifluoromethyl)-1H-pyrazol-1-yl)benzonitrile]: the pIC50 is 5.30 to 6.00.

Take `Cc1c(C#Cc2ccccn2)c(N(C)C)nn1-c1cc(F)cc(C#N)c1` [Compound 15, 3-(3-(dimethylaminuteso)-5-methyl-4-(2-(pyridin-2-yl)ethynyl)-1H-pyrazol-1-yl)-5-fluorobenzonitrile]: the negative-log IC50 (pIC50) is 5.30 to 6.00.

In the case of `Fc1ccc(-n2ncc(C#Cc3ccccn3)c2Cl)cn1` [Compound 18], the pIC50 is ≥ 6.30.

Regarding `N#Cc1cc(F)cc(-n2cc(C#Cc3ccccn3)c(OC(F)F)n2)c1` [Compound 47, 3-(3-(difluoromethoxy)-4-(pyridin-2-ylethynyl)-1H-pyrazol-1-yl)-5-fluorobenzonitrile], the pIC50 was ≥ 6.30.

Staying with this assay, now noted: Table 2; HEK293 cells stably expressing recombinant rat mGluR5; 15 min incubation of test compound, then submaximal glutamate; read-out: IC50 (FLIPR assay).
On to `N#Cc1cc(F)cc(-n2ccc(C#Cc3ccccn3)n2)c1` [Compound 105, 3-fluoro-5-(3-(pyridin-2-ylethynyl)-1H-pyrazol-1-yl)benzonitrile], for which the pIC50 was ≥ 6.30.

For the compound `Fc1ccc(-n2ccc(C#Cc3cnccn3)n2)cc1` [Compound 119, 2-((1-(4-fluorophenyl)-H-pyrazol-3-yl)ethynyl)pyrazine], the pIC50 was 5.30 to 6.00.

With `Cc1cn(-c2cc(F)cc(C#N)c2)nc1C#Cc1ccccn1` [Compound 59, 3-fluoro-5-(4-methyl-3-(pyridin-2-ylethynyl)-1H-pyrazol-1-yl) benzonitrile], the pIC50 is ≥ 6.30.

For `N#Cc1cc(F)cc(-n2ccc(C#Cc3ncccn3)n2)c1` [Compound 109, 3-fluoro-5-(3-(pyrimidin-2-ylethynyl)-1H-pyrazol-1-yl)benzonitrile], the pIC50 was ≥ 6.30.

As for `N#Cc1cc(F)cc(-n2ccc(C#Cc3ccnc(Cl)c3)n2)c1` [Compound 108, 3-(3-((2-chloropyridin-4-yl)ethynyl)-1H-pyrazol-1-yl)-5-fluorobenzonitrile], the negative-log IC50 (pIC50) is ≥ 6.30.

For the compound `Cc1cc(C#Cc2ccccn2)nn1-c1ccc(F)cn1` [Compound 73, 5-fluoro-2-(5-methyl-3-(pyridin-2-ylethynyl)-1H-pyrazol-1-yl)], the pIC50 is ≥ 6.30.

In the case of `Cc1cc(C#Cc2cnccn2)nn1-c1ccc(OC(F)(F)F)cc1` [Compound 134, 2-((5-methyl-1-(4-(trifluoromethoxy)phenyl)-H-pyrazol-3-yl)ethynyl)pyrazine], the pIC50 was 5.30 to 6.00.

As for `N#Cc1cc(F)cc(-n2ccc(C#Cc3ccncc3)n2)c1` [Compound 110, 3-fluoro-5-(3-(pyridin-4-ylethynyl)-H-pyrazol-1-yl)benzonitrile], the pIC50 is ≥ 6.30.

As for `Cc1cc(C#Cc2cnccn2)nn1-c1cc(F)cc(C#N)c1` [Compound 103, 3-fluoro-5-(5-methyl-3-(pyrazin-2-ylethynyl)-1H-pyrazol-1-yl) Benzonitrile], the pIC50 was ≥ 6.30.

Regarding `Fc1ccc(-n2ccc(C#Cc3ccccc3)n2)cc1` [Compound 113, 1-(4-fluorophenyl)-3-(phenylethynyl)-1H-pyrazole], the pIC50 was 5.30 to 6.00.

Consider `N#Cc1cc(F)cc(-n2ccc(C#Cc3cnccn3)n2)c1` [Compound 111, 3-fluoro-5-(3-(pyrazin-2-ylethynyl)-1H-pyrazol-1-yl)benzonitrile], for which the pIC50 was ≥ 6.30.

`FC(F)(F)Oc1ccc(-n2ccc(C#Cc3cnccn3)n2)cc1` [Compound 125, 2-((1-(4-(trifluoromethoxy)phenyl)-1H-pyrazol-3-yl)ethynyl) pyrazine]: the pIC50 was 5.30 to 6.00.

Turning to `Cc1cc(C#Cc2ccnc(Cl)c2)nn1-c1cc(F)cc(C#N)c1` [Compound 100, 3-(3-((2-chloropyridin-4-yl)ethynyl)-5-methyl-1H-pyrazol-1-yl)-5-fluorobenzonitrile], the pIC50 is ≥ 6.30.

Consider `Cc1cc(C#Cc2ccnc(Cl)c2)nn1-c1ccc(F)cc1` [Compound 131, 2-chloro-4-((1-(4-fluorophenyl)-5-methyl-1H-pyrazol-3-yl)ethynyl) pyridine], for which the pIC50 is ≥ 6.30.

Consider `Cc1cn(-c2ccc(F)cn2)nc1C#Cc1ccccn1` [Compound 72, 5-fluoro-2-(4-methyl-3-(pyridin-2-ylethynyl)-1H-pyrazol-1-yl) pyridine], for which the pIC50 was 6.00 to 6.30.

For `FC(F)(F)Oc1ccc(-n2ccc(C#Cc3cccc(Cl)c3)n2)cc1` [Compound 122, 3-((3-chlorophenyl)ethynyl)-1-(4-(trifluoromethoxy)phenyl)-1H-pyrazole], the pIC50 is 5.30 to 6.00.

Take `Cc1cc(C#Cc2cccnc2)nn1-c1cc(F)cc(C#N)c1` [Compound 98, 3-fluoro-5-(5-methyl-3-(pyridin-3-ylethynyl)-1H-pyrazol-1-yl) benzonitrile]: the negative logarithm of the IC50 (pIC50) is ≥ 6.30.

Turning to `Cc1cc(C#Cc2cnccn2)nn1-c1ccc(F)cc1` [Compound 129, 2-((1-(4-fluorophenyl)-5-methyl-1H-pyrazol-3-yl)ethynyl)pyrazine], the pIC50 was 5.30 to 6.00.

For the compound `Cc1cn(-c2cc(F)cc(C#N)c2)nc1C#Cc1ncccn1` [Compound 60, 3-fluoro-5-(4-methyl-3-(pyrimidin-2-ylethynyl)-1H-pyrazol-1-yl) benzonitrile], the pIC50 was ≥ 6.30.

Turning to `Cc1cc(C#Cc2ncccn2)nn1-c1cc(F)cc(C#N)c1` [Compound 101, 3-fluoro-5-(5-methyl-3-(pyrimidin-2-ylethynyl)-H-pyrazol-1-yl) Benzonitrile], the pIC50 is ≥ 6.30.

With `N#Cc1cc(F)cc(-n2ccc(C#Cc3ccccc3)n2)c1` [Compound 104], the pIC50 was 5.30 to 6.00.
